{"source": "patent US11510928B2", "about": "“Use of mirtazapine in the treatment of inflammatory disorders, autoimmune disease and PBC” (UTI Limited Partnership, priority 2017, dated 2022)", "key": {"[1]": {"tested_on": "patients in the UK THIN database", "test": "Retrospective THIN cohort study: incidence of autoimmune diseases with mirtazapine exposure (Example 7)", "format": "in vivo, human", "conditions": "exposed vs matched (2:1) non-exposed cohort", "from_the_text": "Patients who were prescribed mirtazapine. 90 day ([…]) identified and compared to a matched patient cohort (2:1) not exposed to mirtazapine (n=372,822). Out models were adjusted for depression, use of other antidepressants, comorbidity status, smoking and alcohol consumption."}, "Con A-induced hepatitis": {"tested_on": "Con A-induced hepatitis", "test": "Concanavalin A (Con A) hepatitis model of immune-mediated liver injury", "format": "in vivo, mouse", "conditions": "for Con A-induced liver damage (plasma ALT levels): 1, 10, 20 mg/kg ip 1 hour before Con A", "protocol": "To determine whether mirtazapine treatment alters subsequent immune-mediated liver injury, we used the mouse model of concanavalin (Con A) hepatitis. The Con A model is a widely used and well characterized model of immune-mediated T cell-driven liver injury^16, 17. Mice were treated with mirtazapine 20 mg/kg ip and 1 hour later Con A (Sigma, St. Louis, Mo.) or PBS vehicle was injected intravenously at a dose of 13.5 mg/kg^17. Mice were sacrificed 16 hours following Con A administration and hepatitis determined biochemically (ALT) and histologically (H & E staining)^17, 18. In addition, to further characterize the effects of mirtazapine in the Con A model, we performed a mirtazapine dose response study with mirtazapine doses of 1, 10, and 20 mg/kg ip given 1 hour prior to Con A treatment.\nTo assess liver injury, plasma alanine aminotransferase (ALT) activity was measured (Roche-Hitachi Modular-P800 apparatus; Roche, Mannheim, Germany). Additionally, formalin-fixed liver tissue slices were stained with Hematoxylin and Eosin (H&E) for microscopic examination. Extent of liver parenchymal necrosis was quantitated as previously described, using an Olympus XC10 camera (acquired using the Olympus VS-ASW software package; original magnification ×400). Images were later processed and selected images obtained at 25 or 50% magnification (corresponding to magnifications of 100x and 200X, respectively).\nHepatic CXCL10/IP-10, CXCL9/MIG, ICAM-1 and VCAM-1 expression were determined using immunohistochemistry, as previously described. Briefly, following initial deparaffinization and rehydration of tissue sections, antigen retrieval was performed in lx Citrate buffer, PH 6.0 (Abcam) for IP-10/CXCL9 and MIG/CXCL9, or in 1X EDTA buffer pH 8.0 for ICAM1 and VCAM-1. In all cases slides were incubated in antigen retrieval buffer at 95-100° C. for 20 minutes. Endogenous peroxidase and endogenous biotin were blocked using 3% H2O2 and an avidin/biotin blocking kit (Vector Laboratories, Burlingame, Calif.) respectively, and then incubated with primary antibodies (Rabbit IgG polyclonal against MIG at 1:200; polyclonal goat IgG against IP-10/CXCL10 at 1:40; rat monoclonal against ICAM-1 clone YN1/1.7.4 at 1:200; and rabbit monoclonal against VCAM1 clone EPR5047 at 1:1000) overnight at 4° C. This was followed by incubation with biotinylated rabbit anti-goat, goat-anti rat or goat anti-rabbit secondary antibodies (at 1:150) for 1 hour at room temperature (Vector Labs). Negative staining controls were performed by omission of primary antibody, or by omission of both primary and secondary antibodies. […] This was followed by incubation with Vectastain Elite ABC kit (Vector Laboratories) for 30 min at room temperature. Color was developed with Nova Red Chromogen (ImmPACT NovaRED Peroxidase Substrate, Vector Lab, Burlingame, Calif.), after which sections were counterstained with hematoxylin (EMD Millipore). Mounted slides were converted to virtual slides with a BX61 VS virtual microscopy system equipped with an XC10 camera and VS ASW software (Olympus) (original magnification ×400). For ICAM-1, VCAM1, CXCL9/Mig, and CXCL10/IP10 expression, all scanned virtual slides of the sections were examined in a blinded fashion, and expression patterns evaluated and described.\nTo delineate the effect of mirtazapine treatment on hepatic cytokine/chemokine expression a Luminex® assay was used using methods as previously described. Livers were collected 5 hours after mirtazapine or vehicle treatment. A panel of mouse cytokines/chemokines were simultaneously measured in liver homogenate samples using a mouse MILLIPLEX kit (Millipore, USA) according to the manufacturer's protocol. The multiplexing analysis was performed using the Luminex 100 system (Luminex®, USA; Eve Technologies Corporation, Calgary, Canada). Total protein concentrations in liver homogenates were quantified using a BCA Protein Assay kit (Pierce, USA) according to manufacturers instructions. […]"}}}
{"smiles": "CN1CCN2c3ncccc3Cc3ccccc3C2C1", "note": "(stereo not shown) [Mirtazapine]", "values": [{"measurement": "Adjusted Incidence Rate Ratio (adjusted IRR), Multiple Sclerosis", "setting": "[1]", "result": 0.80}, {"measurement": "Adjusted Incidence Rate Ratio (adjusted IRR), Psoriasis", "setting": "[1]", "result": 0.93}, {"measurement": "Adjusted Incidence Rate Ratio (adjusted IRR), Rheumatoid Arthritis", "setting": "[1]", "result": 0.55}, {"measurement": "Histological liver damage (liver cell necrosis, H&E)", "setting": "Con A-induced hepatitis; 20 mg/kg, 16 hrs post-Con A", "result": "only a minimal hepatocyte damage"}, {"measurement": "Con A-induced liver damage (plasma ALT levels)", "setting": "Con A-induced hepatitis; 16 hrs post-Con A", "result": "markedly attenuated"}, {"measurement": "Con A-induced liver damage (plasma ALT levels)", "setting": "Con A-induced hepatitis; 16 hrs post-Con A, listed as mirtazapine", "result": "striking reduction in liver damage"}, {"measurement": "Hepatic CXCL10 levels", "setting": "Con A-induced hepatitis; Con A treated mice, 20 mg/kg", "result": "significantly augmented"}, {"measurement": "Hepatic IL-10 levels", "setting": "Con A-induced hepatitis; Con A treated mice, 20 mg/kg", "result": "significantly higher"}, {"measurement": "Hepatic TNFα and IFNγ levels", "setting": "Con A-induced hepatitis; Con A treated mice, 20 mg/kg", "result": "significantly reduced"}, {"measurement": "Hepatic levels of IL-6, IL-9 and LIF", "setting": "Con A-induced hepatitis; Con A treated mice, 20 mg/kg", "result": "significantly reduced"}, {"measurement": "Hepatic levels of the chemokines CXCL9, CXCL2, CXCL1, CCL11 and CCL2", "setting": "Con A-induced hepatitis; Con A treated mice, 20 mg/kg", "result": "reduced"}, {"measurement": "Con A-induced increases in ICAM-1 expression in hepatic central veins and sinusoidal endothelium", "setting": "Con A-induced hepatitis; IHC, 20 mg/kg", "result": "almost completely prevented"}, {"measurement": "Con A-induced increases in hepatic VCAM-1 expression", "setting": "Con A-induced hepatitis; IHC, 20 mg/kg", "result": "minimal effect"}]}
